Experimental data reported in patent publication US11311542B2, “Inhibitors of cyclin dependent kinase 7 (CDK7)” (Syros Pharmaceuticals, Inc., priority 2018, dated 2022).

Tests used:
HCC70 cells = test: Inhibition of cell proliferation (CyQUANT Direct), HCC70; type: cell-based, human; conditions: Homo sapiens, HCC70, 72-hour
COV318 cells = test: Inhibition of cell proliferation (CyQUANT Direct), COV318; type: cell-based, human; conditions: Homo sapiens, COV318, 72-hour
COV504 cells = test: Inhibition of cell proliferation (CyQUANT Direct), COV504; type: cell-based, human; conditions: Homo sapiens, COV504, 72-hour
MB453 cells = test: Inhibition of cell proliferation (CyQUANT Direct), MB453; type: cell-based, human; conditions: Homo sapiens, MB453, 72-hour
CDK2/Cyclin E1 complex = CDK2/Cyclin E1 complex (Homo sapiens, UniProt P24941); test: CDK2 kinase inhibition assay (Caliper/LabChip EZ Reader)
Protocol: Compounds described herein were assayed for inhibition of CDK7, CDK9, CDK12, and CDK2 activity at Biortus Biosciences (Jiangyin, Jiangsu Province, P.R. of China) using kinase assays for each CDK developed with a Caliper/LabChip EZ Reader (Perkin Elmer, Waltham, Mass.).
Furthermore, the CDK9 inhibition assay used CDK9/Cyclin T1 complex (8 nM) and “5-FAM-CDK9tide” peptide substrate (2 μM, synthesized fluorophore-labeled peptide with the following sequence: 5-FAM-GSRTPMY-NH2 (SEQ ID NO:2) where 5-FAM is defined above and NH2 signifies a C-terminal amide) with 10 mM MgCl2 in the buffer composition listed above. The CDK12 inhibition assay used CDK12 (aa686-1082)/Cyclin K complex (50 nM) and “5-FAM-CDK9tide” (2 μM) as defined above, with 2 mM MgCl2 in the buffer composition above. Additionally, the CDK2 inhibition assay used CDK2/Cyclin E1 complex (0.5 nM) and “5-FAM-CDK7tide” (2 μM; defined above) with 2 mM MgCl2 in the buffer composition above.
The incubation period at 27° C. for each CDK inhibition assay was chosen such that the fraction of phosphorylated peptide product produced in each assay, relative to the total peptide concentration, was approximately 20% (±5%) for the uninhibited kinase (35 min. for CDK7, 35 min. for CDK2, 3 hr. for CDK12, 15 min. for CDK9).

[1] = biological target: CDK7/Cyclin H/MAT1 complex (Homo sapiens, UniProt P50613); test: CDK7 kinase inhibition assay (Caliper/LabChip EZ Reader)
CDK9/Cyclin T1 complex = CDK9/Cyclin T1 complex (Homo sapiens, UniProt P50750); test: CDK9 kinase inhibition assay (Caliper/LabChip EZ Reader)
[2] = biological target: CDK12 (aa686-1082)/Cyclin K complex (Homo sapiens, UniProt Q9NYV4); test: CDK12 kinase inhibition assay (Caliper/LabChip EZ Reader)
Chain of CDK12 (aa686-1082)/Cyclin K complex (Q9NYV4 686-1082): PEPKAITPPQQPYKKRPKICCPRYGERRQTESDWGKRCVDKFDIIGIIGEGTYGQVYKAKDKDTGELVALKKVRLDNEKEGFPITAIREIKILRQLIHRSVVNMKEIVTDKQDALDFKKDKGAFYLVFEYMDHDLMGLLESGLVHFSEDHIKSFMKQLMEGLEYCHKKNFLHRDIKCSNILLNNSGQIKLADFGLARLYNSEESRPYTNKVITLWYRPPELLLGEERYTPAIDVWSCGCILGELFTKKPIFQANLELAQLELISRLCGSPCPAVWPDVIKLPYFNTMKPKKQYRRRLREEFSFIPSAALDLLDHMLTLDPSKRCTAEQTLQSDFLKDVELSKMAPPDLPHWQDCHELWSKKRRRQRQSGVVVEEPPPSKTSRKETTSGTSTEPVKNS
Chain of CDK12 (aa686-1082)/Cyclin K complex (O75909 whole entry partner, the tested form may be a part): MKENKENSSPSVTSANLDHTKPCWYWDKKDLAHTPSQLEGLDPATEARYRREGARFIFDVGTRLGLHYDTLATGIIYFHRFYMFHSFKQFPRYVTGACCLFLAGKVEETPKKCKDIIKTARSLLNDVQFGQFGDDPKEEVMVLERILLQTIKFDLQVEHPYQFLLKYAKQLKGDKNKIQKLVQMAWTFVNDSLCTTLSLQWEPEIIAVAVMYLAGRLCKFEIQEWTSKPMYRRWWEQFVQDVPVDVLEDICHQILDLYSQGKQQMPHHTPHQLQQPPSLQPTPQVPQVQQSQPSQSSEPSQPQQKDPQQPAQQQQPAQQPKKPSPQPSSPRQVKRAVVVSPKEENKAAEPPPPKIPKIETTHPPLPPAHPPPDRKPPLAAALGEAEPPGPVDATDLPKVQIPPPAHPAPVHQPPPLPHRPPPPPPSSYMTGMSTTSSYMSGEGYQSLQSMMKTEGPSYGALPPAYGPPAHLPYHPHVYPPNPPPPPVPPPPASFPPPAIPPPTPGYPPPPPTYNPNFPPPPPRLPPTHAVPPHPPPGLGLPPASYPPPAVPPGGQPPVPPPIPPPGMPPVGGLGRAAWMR

Chain of CDK7/Cyclin H/MAT1 complex (P50613 whole entry): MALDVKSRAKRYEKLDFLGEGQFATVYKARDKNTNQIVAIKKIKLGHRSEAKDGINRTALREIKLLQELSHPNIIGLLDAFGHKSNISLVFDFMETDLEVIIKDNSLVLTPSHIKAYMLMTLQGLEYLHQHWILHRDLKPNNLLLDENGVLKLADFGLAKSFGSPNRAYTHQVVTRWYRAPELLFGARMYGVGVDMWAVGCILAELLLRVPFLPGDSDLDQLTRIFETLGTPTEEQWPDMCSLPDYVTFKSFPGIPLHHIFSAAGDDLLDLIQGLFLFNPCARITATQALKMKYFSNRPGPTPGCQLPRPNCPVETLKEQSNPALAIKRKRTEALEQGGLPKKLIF
Chain of CDK7/Cyclin H/MAT1 complex (P51946 whole entry partner): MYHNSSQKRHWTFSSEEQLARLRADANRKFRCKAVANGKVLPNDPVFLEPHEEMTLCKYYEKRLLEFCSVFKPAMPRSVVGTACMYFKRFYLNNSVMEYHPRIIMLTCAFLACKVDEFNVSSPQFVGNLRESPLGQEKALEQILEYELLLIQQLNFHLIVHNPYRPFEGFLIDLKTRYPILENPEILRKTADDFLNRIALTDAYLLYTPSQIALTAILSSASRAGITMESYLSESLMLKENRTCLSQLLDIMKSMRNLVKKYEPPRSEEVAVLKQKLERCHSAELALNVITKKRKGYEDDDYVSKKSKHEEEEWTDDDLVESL
Chain of CDK7/Cyclin H/MAT1 complex (P51948 whole entry partner): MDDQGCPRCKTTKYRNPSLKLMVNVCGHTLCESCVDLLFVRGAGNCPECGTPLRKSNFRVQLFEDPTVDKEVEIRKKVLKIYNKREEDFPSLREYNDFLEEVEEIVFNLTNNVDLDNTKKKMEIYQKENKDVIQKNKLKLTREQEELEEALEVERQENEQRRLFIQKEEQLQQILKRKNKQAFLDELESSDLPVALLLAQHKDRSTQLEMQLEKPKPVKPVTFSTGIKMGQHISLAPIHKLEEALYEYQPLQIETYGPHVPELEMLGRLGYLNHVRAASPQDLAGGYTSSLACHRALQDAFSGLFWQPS
Chain of CDK9/Cyclin T1 complex (P50750 whole entry, the tested form may be a part): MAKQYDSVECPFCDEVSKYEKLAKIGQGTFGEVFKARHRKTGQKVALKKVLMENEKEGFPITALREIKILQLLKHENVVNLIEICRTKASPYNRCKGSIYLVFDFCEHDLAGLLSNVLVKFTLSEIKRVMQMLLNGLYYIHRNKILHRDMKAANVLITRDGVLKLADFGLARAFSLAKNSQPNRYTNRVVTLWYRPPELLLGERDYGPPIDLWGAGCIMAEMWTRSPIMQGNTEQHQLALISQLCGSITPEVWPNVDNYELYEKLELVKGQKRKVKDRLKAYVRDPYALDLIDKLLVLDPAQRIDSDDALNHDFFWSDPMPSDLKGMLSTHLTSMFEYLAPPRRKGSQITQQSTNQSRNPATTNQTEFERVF
Chain of CDK9/Cyclin T1 complex (O60563 whole entry partner, the tested form may be a part): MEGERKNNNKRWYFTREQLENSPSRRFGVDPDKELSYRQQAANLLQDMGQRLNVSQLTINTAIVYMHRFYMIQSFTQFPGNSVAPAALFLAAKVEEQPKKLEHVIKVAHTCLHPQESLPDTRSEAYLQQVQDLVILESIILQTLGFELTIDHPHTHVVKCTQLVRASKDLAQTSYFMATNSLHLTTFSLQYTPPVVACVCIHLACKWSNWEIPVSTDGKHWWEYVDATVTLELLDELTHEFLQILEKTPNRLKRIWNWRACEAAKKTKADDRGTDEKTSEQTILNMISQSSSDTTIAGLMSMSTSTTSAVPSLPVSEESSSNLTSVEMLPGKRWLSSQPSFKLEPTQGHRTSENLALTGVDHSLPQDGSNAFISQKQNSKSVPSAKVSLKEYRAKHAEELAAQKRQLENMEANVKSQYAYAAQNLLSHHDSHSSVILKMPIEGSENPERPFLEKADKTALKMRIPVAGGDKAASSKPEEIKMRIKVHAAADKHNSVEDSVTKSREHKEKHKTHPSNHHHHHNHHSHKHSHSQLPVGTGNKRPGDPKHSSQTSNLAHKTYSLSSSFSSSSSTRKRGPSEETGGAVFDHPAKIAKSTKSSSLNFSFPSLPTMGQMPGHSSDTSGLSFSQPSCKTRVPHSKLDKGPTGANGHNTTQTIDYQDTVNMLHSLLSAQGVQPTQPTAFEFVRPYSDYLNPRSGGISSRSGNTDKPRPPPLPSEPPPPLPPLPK

CC1(C)CC[C@H](Nc2ncc(C(F)(F)F)c(-c3c[nH]c4cc(-c5nccs5)ccc34)n2)CN1 [Compound 106, (S)—N-(6,6-dimethylpiperidin-3-yl)-4-(6-(thiazol-2-yl)-1H-indol-3-yl)-5-(trifluoromethyl)pyrimidin-2-amine]
IC50 (HCC70 cells): < 100 nM
IC50 (COV318 cells): 100 to 500 nM
IC50 (COV504 cells): < 100 nM
IC50 (MB453 cells): < 100 nM
IC50 (CDK2/Cyclin E1 complex): > 500 nM
IC50 [1]: < 30 nM
IC50 (CDK9/Cyclin T1 complex): > 500 nM
IC50 [2]: > 500 nM

Cc1noc(C)c1-c1ccc2c(-c3nc(N[C@H]4CC[C@H](C)NC4)ncc3C(F)(F)F)c[nH]c2n1 [Compound 124, 4-[6-(3,5-dimethylisoxazol-4-yl)-1H-pyrrolo-[2,3-b]-pyridin-3-yl]-N-[(3S,6S)-6-methyl-3-piperidyl]-5-(trifluoromethyl)pyrimidin-2-amine]
IC50 (HCC70 cells): < 100 nM
IC50 (COV318 cells): < 100 nM
IC50 (COV504 cells): < 100 nM
IC50 (MB453 cells): < 100 nM
IC50 (CDK2/Cyclin E1 complex): > 500 nM
IC50 [1]: < 30 nM
IC50 (CDK9/Cyclin T1 complex): > 500 nM
IC50 [2]: > 500 nM

Cc1nocc1-c1ccc2c(-c3nc(N[C@@H]4CNC[C@H](O)C4)ncc3C(F)(F)F)c[nH]c2n1 [Compound 148, (3R,5S)-5-[[4-[6-(3-methylisoxazol-4-yl)-1H-pyrrolo[2,3-b]pyridin-3-yl]-5-(trifluoromethyl)pyrimidin-2-yl]amino]piperidin-3-ol]
IC50 (HCC70 cells): > 1000 nM
IC50 (COV318 cells): > 1000 nM
IC50 (COV504 cells): 500 to 1000 nM
IC50 (MB453 cells): 100 to 500 nM
IC50 (CDK2/Cyclin E1 complex): > 500 nM
IC50 [1]: < 30 nM
IC50 (CDK9/Cyclin T1 complex): > 500 nM
IC50 [2]: > 500 nM

Cc1noc(C)c1-c1ccc2c(-c3nc(N[C@H]4CCC(C)(C)NC4)ncc3C(F)(F)F)n[nH]c2n1 [Compound 144]
IC50 (HCC70 cells): < 100 nM
IC50 (COV318 cells): > 1000 nM
IC50 (COV504 cells): < 100 nM
IC50 (MB453 cells): < 100 nM
IC50 (CDK2/Cyclin E1 complex): > 500 nM
IC50 [1]: < 30 nM
IC50 (CDK9/Cyclin T1 complex): > 500 nM
IC50 [2]: > 500 nM
